Assay results from ChEMBL document CHEMBL5303573, “Mapping human microbiome drug metabolism by gut bacteria and their genes” (Nature, 2019).

What was measured:
[1] = The drug is tested on Escherichia coli strain: BW25113 for biotransformation. The drug concentrations were measured before and after a 12-h incubation by liquid-chromatography-coupled mass spectrometry (LC–MS); conditions: 2 µM
[2] = The drug is tested on Coprococcus comes strain: ATCC27758 for biotransformation. The drug concentrations were measured before and after a 12-h incubation by liquid-chromatography-coupled mass spectrometry (LC–MS); assay type: ADME; parameters: dose 2 uM, timepoint 0 vs 12 hours; conditions: 2 µM
[3] = The drug is tested on Enterobacter cancerogenus strain: ATCC35316 for biotransformation. The drug concentrations were measured before and after a 12-h incubation by liquid-chromatography-coupled mass spectrometry (LC–MS); conditions: 2 µM
[4] = The drug is tested on Alistipes indistinctus strain: DSM22520 for biotransformation. The drug concentrations were measured before and after a 12-h incubation by liquid-chromatography-coupled mass spectrometry (LC–MS); conditions: 2 µM
[5] = The drug is tested on Clostridium ramosum strain: DSM1402 for biotransformation. The drug concentrations were measured before and after a 12-h incubation by liquid-chromatography-coupled mass spectrometry (LC–MS); conditions: thomasclavelia ramosa, 2 µM
[6] = bacteroides fragilis, 12 h, 2 µM
Description: The drug is tested on Bacteroides fragilis strain: DS-208 for biotransformation. The drug concentrations were measured before and after a 12-h incubation by liquid-chromatography-coupled mass spectrometry (LC–MS)

[7] = The drug is tested on Bifidobacterium ruminantium strain: fecal isolate for biotransformation. The drug concentrations were measured before and after a 12-h incubation by liquid-chromatography-coupled mass spectrometry (LC–MS); conditions: 2 µM
[8] = The drug is tested on Parabacteroides merdae strain: ATCC43184 for biotransformation. The drug concentrations were measured before and after a 12-h incubation by liquid-chromatography-coupled mass spectrometry (LC–MS); conditions: 2 µM
[9] = victivallis vadensis, 12 h, 2 µM
Description: The drug is tested on Victivallis vadensis strain: ATCC BAA-548 for biotransformation. The drug concentrations were measured before and after a 12-h incubation by liquid-chromatography-coupled mass spectrometry (LC–MS)

[10] = roseburia intestinalis, 12 h, 2 µM
Description: The drug is tested on Roseburia intestinalis strain: L1-82 for biotransformation. The drug concentrations were measured before and after a 12-h incubation by liquid-chromatography-coupled mass spectrometry (LC–MS)

[11] = The drug is tested on Enterococcus faecalis strain: V583 for biotransformation. The drug concentrations were measured before and after a 12-h incubation by liquid-chromatography-coupled mass spectrometry (LC–MS); conditions: 2 µM
[12] = bacteroides thetaiotaomicron, 12 h, 2 µM
Description: The drug is tested on Bacteroides thetaiotaomicron strain: 7330 for biotransformation. The drug concentrations were measured before and after a 12-h incubation by liquid-chromatography-coupled mass spectrometry (LC–MS)

[13] = bacteroides thetaiotaomicron, 12 h, 2 µM; remark: listed apart in the source
Description: The drug is tested on Bacteroides thetaiotaomicron strain: VPI-5482 for biotransformation. The drug concentrations were measured before and after a 12-h incubation by liquid-chromatography-coupled mass spectrometry (LC–MS)

[14] = The drug is tested on Bacteroides dorei strain: DSM17855 for biotransformation. The drug concentrations were measured before and after a 12-h incubation by liquid-chromatography-coupled mass spectrometry (LC–MS); conditions: phocaeicola dorei, 2 µM
[15] = The drug is tested on Bacteroides vulgatus strain: ATCC8482 for biotransformation. The drug concentrations were measured before and after a 12-h incubation by liquid-chromatography-coupled mass spectrometry (LC–MS); conditions: phocaeicola vulgatus, 2 µM
[16] = The drug is tested on Bacteroides finegoldii strain: DSM17565 for biotransformation. The drug concentrations were measured before and after a 12-h incubation by liquid-chromatography-coupled mass spectrometry (LC–MS); conditions: 2 µM
[17] = The drug is tested on Anaerococcus hydrogenalis strain: DSM7454 for biotransformation. The drug concentrations were measured before and after a 12-h incubation by liquid-chromatography-coupled mass spectrometry (LC–MS); conditions: 2 µM
[18] = The drug is tested on Blautia hansenii strain: DSM20583 for biotransformation. The drug concentrations were measured before and after a 12-h incubation by liquid-chromatography-coupled mass spectrometry (LC–MS); conditions: 2 µM
[19] = The drug is tested on Bacteroides coprophilus strain: DSM18228 for biotransformation. The drug concentrations were measured before and after a 12-h incubation by liquid-chromatography-coupled mass spectrometry (LC–MS); conditions: 2 µM
[20] = The drug is tested on Bacteroides uniformis strain: ATCC8492 for biotransformation. The drug concentrations were measured before and after a 12-h incubation by liquid-chromatography-coupled mass spectrometry (LC–MS); conditions: 2 µM

SMILES | Bacterial Biotransformation [1] | Bacterial Biotransformation [2] | Bacterial Biotransformation [3] | Bacterial Biotransformation [4] | Bacterial Biotransformation [5] | Bacterial Biotransformation [6] | Bacterial Biotransformation [7] | Bacterial Biotransformation [8] | Bacterial Biotransformation [9] | Bacterial Biotransformation [10] | Bacterial Biotransformation [11] | Bacterial Biotransformation [12] | Bacterial Biotransformation [13] | Bacterial Biotransformation [14] | Bacterial Biotransformation [15] | Bacterial Biotransformation [16] | Bacterial Biotransformation [17] | Bacterial Biotransformation [18] | Bacterial Biotransformation [19] | Bacterial Biotransformation [20]
CC(=O)OCC(=O)[C@@]12N=C(C)O[C@@H]1C[C@H]1[C@@H]3CCC4=CC(=O)C=C[C@]4(C)[C@H]3[C@@H](O)C[C@@]12C [DEFLAZACORT] | Compound metabolized | Compound metabolized | Compound metabolized | Compound metabolized | Compound metabolized | Compound metabolized | Compound metabolized | Compound metabolized | Compound metabolized | Compound metabolized | Compound metabolized | Compound metabolized | Compound metabolized | Compound metabolized | Compound metabolized | Compound metabolized | Compound metabolized | Compound metabolized | Compound metabolized | Compound metabolized
COc1ccccc1OCCNCC(O)COc1cccc2[nH]c3ccccc3c12 (stereo not given) [CARVEDILOL] | Compound metabolized | Compound NOT metabolized | Compound metabolized | Compound metabolized | Compound metabolized | Compound metabolized | Compound metabolized | Compound metabolized | Compound NOT metabolized | Compound NOT metabolized | Compound NOT metabolized | Compound metabolized | Compound metabolized | Compound metabolized | Compound metabolized | Compound metabolized | Compound metabolized | Compound metabolized | Compound metabolized | Compound metabolized
CCOC(=O)C1=C(C)NC(C)=C(C(=O)OC)C1c1cccc([N+](=O)[O-])c1 (stereo not given) [NITRENDIPINE] | Compound metabolized | Compound metabolized | Compound NOT metabolized | Compound metabolized | Compound metabolized | Compound metabolized | Compound metabolized | Compound metabolized | Compound metabolized | Compound metabolized | Compound metabolized | Compound metabolized | Compound metabolized | Compound metabolized | Compound metabolized | Compound metabolized | Compound metabolized | Compound metabolized | Compound NOT metabolized | Compound metabolized
COc1c(C)c2c(c(O)c1C/C=C(\C)CCC(=O)OCCN1CCOCC1)C(=O)OC2 [MYCOPHENOLATE MOFETIL] | Compound metabolized | Compound metabolized | Compound metabolized | Compound metabolized | Compound metabolized | Compound metabolized | Compound metabolized | Compound metabolized | Compound metabolized | Compound metabolized | Compound metabolized | Compound metabolized | Compound metabolized | Compound metabolized | Compound metabolized | Compound metabolized | Compound metabolized | Compound metabolized | Compound metabolized | Compound metabolized
